Where a name gives a salt, the structure may show the parent alone. Read-outs that look alike come from different tables or passages of the source.
What was measured:
[1] = target: T1, SARS-CoV-2 PLpro (nsp3 1564–1878) (Severe acute respiratory syndrome coronavirus 2, UniProt P0DTD1); assay: biochemical; set-up: FRET-quenched peptide (Pro3) cleavage by PLpro, 10 min pre-incubation, slope over 20 min, normalised to no-compound control; conditions: read-out: % of control remaining
[2] = target: T1, SARS-CoV-2 PLpro (nsp3 1564–1878); assay: biochemical; set-up: FRET-quenched peptide (Pro3) cleavage by PLpro, 10 min pre-incubation, slope over 20 min, normalised to no-compound control; conditions: read-out: % of control remaining; remark: listed apart in the source

SMILES: CC(=O)N[C@H]1[C@@H](O[C@@H]2O[C@H](C[C@@H](O)[C@@H]3O[C@H](n4ccc(=O)[nH]c4=O)[C@@H](O)[C@H]3O)[C@H](O)[C@H](O)[C@H]2NC(=O)/C=C/CCCCCCCCCCC(C)C)O[C@H](CO)[C@@H](O)[C@@H]1O [Tunicamycin B]
- remaining activity at 1.25 µM ([1]; Well no.=3190, low concentration screen): 104%
- remaining activity at 3.75 µM ([2]; Well no.=3190, high concentration screen): 103%

SMILES: O=C(O)CNC(=O)c1cccnc1 [Nicotinuric acid]
- remaining activity at 1.25 µM ([1]; Well no.=6537, low concentration screen): 109%
- remaining activity at 3.75 µM ([2]; Well no.=6537, high concentration screen): 105%

SMILES: CCCC(=O)OC(CNC(C)(C)C)COc1nsnc1N1CCOCC1 (racemic) [(RS)-Butyryltimolol]
- remaining activity at 1.25 µM ([1]; Well no.=7133, low concentration screen): 102%
- remaining activity at 3.75 µM ([2]; Well no.=7133, high concentration screen): 96.2%

SMILES: CCNC(=O)CCC/C=C\C[C@@H]1[C@@H](/C=C/[C@@H](O)CCc2ccccc2)[C@H](O)C[C@@H]1O [Bimatoprost]
- remaining activity at 1.25 µM ([1]; Well no.=5237, low concentration screen): 100%
- remaining activity at 3.75 µM ([2]; Well no.=5237, high concentration screen): 101%

SMILES: CN(C)C(=O)Oc1cccc([N+](C)(C)C)c1 [Neostigmine methyl sulfate]
- remaining activity at 1.25 µM ([1]; Well no.=6077, low concentration screen): 102%
- remaining activity at 3.75 µM ([2]; Well no.=6077, high concentration screen): 101%

SMILES: CC(CC(=O)O)CC(=O)O [3-Methylglutaric acid]
- remaining activity at 1.25 µM ([1]; Well no.=6835, low concentration screen): 100%
- remaining activity at 3.75 µM ([2]; Well no.=6835, high concentration screen): 99.3%

SMILES: [N-]=[N+]=N[C@]1(CO)O[C@@H](n2ccc(N)nc2=O)[C@H](O)[C@@H]1O [R-1479]
- remaining activity at 1.25 µM ([1]; Well no.=7756, low concentration screen): 97.4%
- remaining activity at 3.75 µM ([2]; Well no.=7756, high concentration screen): 99%

SMILES: CCCCCCn1c(O)c(N=NC(=O)c2ccccc2)c2ccccc21 [MDA 19]
- remaining activity at 1.25 µM ([1]; Well no.=7099, low concentration screen): 103%
- remaining activity at 3.75 µM ([2]; Well no.=7099, high concentration screen): 103%

SMILES: CN1CCc2nc(C(=O)N[C@@H]3C[C@@H](C(=O)N(C)C)CC[C@@H]3NC(=O)C(=O)Nc3ccc(Cl)cn3)sc2C1 [Edoxaban]
- remaining activity at 1.25 µM ([1]; Well no.=8572, low concentration screen): 99.4%
- remaining activity at 3.75 µM ([2]; Well no.=8572, high concentration screen): 97.7%

SMILES: Cc1cn([C@H]2C=C[C@@H](CO)O2)c(=O)[nH]c1=O [Stavudine]
- remaining activity at 1.25 µM ([1]; Well no.=7916, low concentration screen): 99.6%
- remaining activity at 3.75 µM ([2]; Well no.=7916, high concentration screen): 96.8%

SMILES: CC(C)[C@H]1CC[C@H](C(=O)N[C@H](Cc2ccccc2)C(=O)O)CC1 [Nateglinide]
- remaining activity at 1.25 µM ([1]; Well no.=1546, low concentration screen): 103%
- remaining activity at 1.25 µM ([1]; Well no.=7504, low concentration screen): 102%
- remaining activity at 3.75 µM ([2]; Well no.=1546, high concentration screen): 103%
- remaining activity at 3.75 µM ([2]; Well no.=7504, high concentration screen): 102%

SMILES: S=C=Nc1cccc(C2(N3CCCCC3)CCCCC2)c1 [Metaphit methanesulfonate]
- remaining activity at 1.25 µM ([1]; Well no.=991, low concentration screen): 98.8%
- remaining activity at 3.75 µM ([2]; Well no.=991, high concentration screen): 98.9%

SMILES: N#Cc1c(Oc2cccc(OS(=O)(=O)CCCC(F)(F)F)c2)cccc1C(F)(F)F [Bay 59-3074]
- remaining activity at 1.25 µM ([1]; Well no.=8043, low concentration screen): 96.7%
- remaining activity at 3.75 µM ([2]; Well no.=8043, high concentration screen): 96.5%

SMILES: CS(=O)(=O)CCNCc1nc(-c2ccc3ncnc(Nc4ccc(OCc5cccc(F)c5)c(Cl)c4)c3c2)cs1 [GW 583340 dihydrochloride - N-[3-Chloro-4-[(3-fluorophenyl)methoxy]phenyl]-6-[2-[[[2-(methylsulfonyl)ethyl]amino]methyl]-4-thiazolyl]-4-quinazolinamine dihydrochloride]
- remaining activity at 1.25 µM ([1]; Well no.=2490, low concentration screen): 94.4%
- remaining activity at 3.75 µM ([2]; Well no.=2490, high concentration screen): 94.9%

SMILES: CC[C@H](C(=O)N1CCCC[C@H]1C(=O)O[C@H](CCc1ccc(OC)c(OC)c1)c1cccc(OCC(=O)NCC(CNC(=O)COc2cccc([C@@H](CCc3ccc(OC)c(OC)c3)OC(=O)[C@@H]3CCCCN3C(=O)[C@@H](CC)c3cc(OC)c(OC)c(OC)c3)c2)CN(C)C)c1)c1cc(OC)c(OC)c(OC)c1 [AP20187]
- remaining activity at 1.25 µM ([1]; Well no.=7174, low concentration screen): 98.8%
- remaining activity at 1.25 µM ([1]; Well no.=7696, low concentration screen): 102%
- remaining activity at 3.75 µM ([2]; Well no.=7174, high concentration screen): 100%
- remaining activity at 3.75 µM ([2]; Well no.=7696, high concentration screen): 97.5%

SMILES: CC(C)(C#N)c1cc(Cn2cncn2)cc(C(C)(C)C#N)c1 [Anastrozole]
- remaining activity at 1.25 µM ([1]; Well no.=1858, low concentration screen): 101%
- remaining activity at 3.75 µM ([2]; Well no.=1858, high concentration screen): 102%

SMILES: Nc1ccn([C@@H]2O[C@H](CO)[C@@H](O)C2(F)F)c(=O)n1 [Gemcitabine HCl (Gemzar)]
- remaining activity at 1.25 µM ([1]; Well no.=5059, low concentration screen): 104%
- remaining activity at 3.75 µM ([2]; Well no.=5059, high concentration screen): 107%

SMILES: CCCCCCCCCCC[C@@H](C[C@@H]1OC(=O)[C@H]1CCCCCC)OC(=O)[C@H](CC(C)C)NC=O [Orlistat]
- remaining activity at 1.25 µM ([1]; Well no.=7366, low concentration screen): 101%
- remaining activity at 3.75 µM ([2]; Well no.=7366, high concentration screen): 101%

SMILES: O=c1cc(-c2ccccc2)oc2cc(O)cc(O)c12 [Chrysine]
- remaining activity at 1.25 µM ([1]; Well no.=3276, low concentration screen): 101%
- remaining activity at 3.75 µM ([2]; Well no.=3276, high concentration screen): 100%

SMILES: CCOC(=O)C1=C(N)Oc2ccc(Br)cc2[C@H]1[C@H](C#N)C(=O)OCC [HA14-1]
- remaining activity at 1.25 µM ([1]; Well no.=5007, low concentration screen): 105%
- remaining activity at 1.25 µM ([1]; Well no.=6296, low concentration screen): 101%
- remaining activity at 3.75 µM ([2]; Well no.=5007, high concentration screen): 101%
- remaining activity at 3.75 µM ([2]; Well no.=6296, high concentration screen): 102%

SMILES: N#CC(C#N)=Cc1cc(O)c(O)c(O)c1 [Tyrphostin 25]
- remaining activity at 1.25 µM ([1]; Well no.=1485, low concentration screen): 90.9%
- remaining activity at 3.75 µM ([2]; Well no.=1485, high concentration screen): 86.6%

SMILES: Cc1cc(/N=N/c2ccc(S(=O)(=O)Nc3ccccn3)cc2)c(N)cc1O [MS436]
- remaining activity at 1.25 µM ([1]; Well no.=7590, low concentration screen): 93.3%
- remaining activity at 3.75 µM ([2]; Well no.=7590, high concentration screen): 96.8%

SMILES: C[C@]12Cc3c[nH]nc3C[C@@H]1CC[C@@H]1[C@@H]2CC[C@@]2(C)[C@H]1CC[C@]2(C)O [Stanozolol]
- remaining activity at 1.25 µM [1]: 94%
- remaining activity at 3.75 µM [2]: 95.3%

SMILES: CCc1c(C(=O)NCCc2ccc(N3CCCCC3)cc2)[nH]c2ccc(Cl)cc12 [Org 27569]
- remaining activity at 1.25 µM ([1]; Well no.=6238, low concentration screen): 103%
- remaining activity at 3.75 µM ([2]; Well no.=6238, high concentration screen): 105%

SMILES: O=C(O)c1ccc(NC(=O)[C@H](CC2CCCC2)n2cnc(C(F)(F)F)c2)nc1 [(S)-6-(3-cyclopentyl-2-(4-(trifluoromethyl)-1H-imidazol-1-yl)propanamido)nicotinic acid]
- remaining activity at 1.25 µM ([1]; Well no.=6066, low concentration screen): 83%
- remaining activity at 3.75 µM ([2]; Well no.=6066, high concentration screen): 86.8%

SMILES: C[C@@H]1CC[C@H]2[C@](C)(CO)[C@@H](O)CC[C@]2(C)[C@@]12CC[C@@](CO)(CCO)O2 [Lagochiline]
- remaining activity at 1.25 µM ([1]; Well no.=3651, low concentration screen): 100%
- remaining activity at 3.75 µM ([2]; Well no.=3651, high concentration screen): 101%

SMILES: Nc1nc(NCCNc2ncc(-n3ccnc3)c(-c3ccc(Cl)cc3Cl)n2)ccc1[N+](=O)[O-] [CHIR-98014]
- remaining activity at 1.25 µM ([1]; Well no.=5035, low concentration screen): 101%
- remaining activity at 3.75 µM ([2]; Well no.=5035, high concentration screen): 96.8%

SMILES: CC[C@H]1CN2CCc3cc(OC)c(OC)cc3[C@@H]2C[C@@H]1C[C@H]1NCCc2cc(O)c(OC)cc21
- remaining activity at 1.25 µM ([1]; Well no.=3501, low concentration screen): 96.1%
- remaining activity at 3.75 µM ([2]; Well no.=3501, high concentration screen): 88.7%

SMILES: N#Cc1ccc(C(c2ccc(C#N)cc2)n2cncn2)cc1 [Letrozole]
- remaining activity at 1.25 µM ([1]; Well no.=1822, low concentration screen): 97.8%
- remaining activity at 3.75 µM ([2]; Well no.=1822, high concentration screen): 98.2%

SMILES: CCc1cc(Nc2nccc(-c3c(-c4ccc(OC)c(C(=O)Nc5c(F)cccc5F)c4)nc4ccccn34)n2)c(OC)cc1N1CCC(N2CCN(S(C)(=O)=O)CC2)CC1 [GSK1904529A]
- remaining activity at 1.25 µM ([1]; Well no.=5013, low concentration screen): 89.7%
- remaining activity at 3.75 µM ([2]; Well no.=5013, high concentration screen): 89.5%

SMILES: OC[C@H]1O[C@@H](n2cnc3c(N[C@@H]4CCc5ccccc54)ncnc32)[C@H](O)[C@@H]1O [PD 117519]
- remaining activity at 1.25 µM ([1]; Well no.=7763, low concentration screen): 96.4%
- remaining activity at 1.25 µM ([1]; Well no.=8169, low concentration screen): 106%
- remaining activity at 3.75 µM ([2]; Well no.=7763, high concentration screen): 102%
- remaining activity at 3.75 µM ([2]; Well no.=8169, high concentration screen): 110%
